# From ChEMBL document CHEMBL2029265, “2-(Pyrrolidin-1-yl)ethyl-3,4-dihydroisoquinolin-1(2H)-one derivatives as potent and selective histamine-3 receptor antagonists” (J Med Chem, 2012)
# Key:
# Histamine H3 receptor [1] = target: Histamine H3 receptor (Rattus norvegicus, UniProt Q9QYN8); experiment: Displacement of [3H]-(R)-alpha-methylhistamine from rat H3 receptor expressed in HEK293T cells after 120 mins by scintillation counting; assay type: cell-based, HEK-293T
# Histamine H3 receptor [2] = target: Histamine H3 receptor (Homo sapiens, UniProt Q9Y5N1); experiment: Displacement of [3H]-(R)-alpha-methylhistamine from human H3 receptor expressed in HEK293T cells after 120 mins by scintillation counting; assay type: cell-based, HEK-293T
# Histamine H3 receptor (Homo sapiens, UniProt Q9Y5N1), sequence (Q9Y5N1 whole entry): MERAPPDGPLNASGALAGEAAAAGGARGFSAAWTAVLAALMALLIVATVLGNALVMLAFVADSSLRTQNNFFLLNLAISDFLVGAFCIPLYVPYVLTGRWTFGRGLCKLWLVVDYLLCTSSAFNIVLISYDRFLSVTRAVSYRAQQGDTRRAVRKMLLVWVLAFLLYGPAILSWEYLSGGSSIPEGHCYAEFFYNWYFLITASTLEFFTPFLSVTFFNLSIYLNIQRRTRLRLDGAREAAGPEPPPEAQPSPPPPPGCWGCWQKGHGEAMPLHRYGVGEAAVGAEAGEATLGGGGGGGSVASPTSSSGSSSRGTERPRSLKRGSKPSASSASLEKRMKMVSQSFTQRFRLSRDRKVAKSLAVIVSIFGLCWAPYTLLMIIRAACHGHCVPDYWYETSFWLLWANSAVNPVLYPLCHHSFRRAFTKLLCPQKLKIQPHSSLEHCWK
# [3] = target: Voltage-gated inwardly rectifying potassium channel KCNH2 (Homo sapiens, UniProt Q12809); experiment: Inhibition of human ERG by IonWorks assay
# hERG (KCNH2) = hERG (KCNH2) (Homo sapiens, UniProt Q12809); experiment: Inhibition of human ERG at 10 uM by IonWorks assay
# [4] = target: T1, Alpha-2A adrenergic receptor (Homo sapiens, UniProt P08913); experiment: Binding affinity to alpha-2A receptor
# T1 sequence (P08913 whole entry): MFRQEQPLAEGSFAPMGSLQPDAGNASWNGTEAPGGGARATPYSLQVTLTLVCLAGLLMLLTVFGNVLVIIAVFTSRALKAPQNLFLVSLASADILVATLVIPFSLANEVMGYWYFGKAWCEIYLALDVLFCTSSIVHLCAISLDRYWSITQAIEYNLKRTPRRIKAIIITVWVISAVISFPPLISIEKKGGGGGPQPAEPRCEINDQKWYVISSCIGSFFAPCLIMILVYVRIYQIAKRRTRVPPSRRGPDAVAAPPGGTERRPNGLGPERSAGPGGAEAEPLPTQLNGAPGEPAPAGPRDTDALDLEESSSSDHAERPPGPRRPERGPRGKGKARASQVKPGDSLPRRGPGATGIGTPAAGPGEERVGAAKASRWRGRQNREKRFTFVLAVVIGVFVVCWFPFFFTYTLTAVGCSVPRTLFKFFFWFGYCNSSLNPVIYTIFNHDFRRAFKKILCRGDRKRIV
# [5] = target: 5-hydroxytryptamine receptor 6 (Homo sapiens, UniProt P50406); experiment: Binding affinity to 5-HT6 receptor
# 5-hydroxytryptamine receptor 6, sequence (P50406 whole entry): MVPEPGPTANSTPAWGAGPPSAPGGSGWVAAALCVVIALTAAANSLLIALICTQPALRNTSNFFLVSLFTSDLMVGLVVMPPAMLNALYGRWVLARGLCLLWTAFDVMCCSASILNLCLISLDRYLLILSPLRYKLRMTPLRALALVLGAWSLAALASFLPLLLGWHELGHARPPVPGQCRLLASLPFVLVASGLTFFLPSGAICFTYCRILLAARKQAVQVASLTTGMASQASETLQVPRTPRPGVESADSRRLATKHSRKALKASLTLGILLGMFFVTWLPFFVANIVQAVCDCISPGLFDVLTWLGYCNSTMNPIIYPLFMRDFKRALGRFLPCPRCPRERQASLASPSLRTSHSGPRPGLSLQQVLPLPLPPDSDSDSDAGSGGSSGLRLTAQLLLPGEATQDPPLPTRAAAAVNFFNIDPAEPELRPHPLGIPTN
# [6] = target: T2, 5-hydroxytryptamine receptor 1A (Homo sapiens, UniProt P08908); experiment: Binding affinity to 5-HT1A receptor
# T2 sequence (P08908 whole entry): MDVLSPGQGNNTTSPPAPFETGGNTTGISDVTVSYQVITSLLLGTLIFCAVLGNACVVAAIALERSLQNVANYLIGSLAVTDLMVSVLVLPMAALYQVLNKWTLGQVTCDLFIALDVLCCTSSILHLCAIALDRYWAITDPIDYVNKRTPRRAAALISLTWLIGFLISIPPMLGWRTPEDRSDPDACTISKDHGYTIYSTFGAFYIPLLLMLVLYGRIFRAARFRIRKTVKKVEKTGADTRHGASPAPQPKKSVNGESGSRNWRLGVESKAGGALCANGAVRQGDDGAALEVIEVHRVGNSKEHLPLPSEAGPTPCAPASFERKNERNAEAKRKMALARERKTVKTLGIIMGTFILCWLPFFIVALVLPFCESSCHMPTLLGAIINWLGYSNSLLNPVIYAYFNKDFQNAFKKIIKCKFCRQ
# [7] = target: 5-hydroxytryptamine receptor 2B (Homo sapiens, UniProt P41595); experiment: Binding affinity to 5-HT2B receptor
# 5-hydroxytryptamine receptor 2B, sequence (P41595 whole entry): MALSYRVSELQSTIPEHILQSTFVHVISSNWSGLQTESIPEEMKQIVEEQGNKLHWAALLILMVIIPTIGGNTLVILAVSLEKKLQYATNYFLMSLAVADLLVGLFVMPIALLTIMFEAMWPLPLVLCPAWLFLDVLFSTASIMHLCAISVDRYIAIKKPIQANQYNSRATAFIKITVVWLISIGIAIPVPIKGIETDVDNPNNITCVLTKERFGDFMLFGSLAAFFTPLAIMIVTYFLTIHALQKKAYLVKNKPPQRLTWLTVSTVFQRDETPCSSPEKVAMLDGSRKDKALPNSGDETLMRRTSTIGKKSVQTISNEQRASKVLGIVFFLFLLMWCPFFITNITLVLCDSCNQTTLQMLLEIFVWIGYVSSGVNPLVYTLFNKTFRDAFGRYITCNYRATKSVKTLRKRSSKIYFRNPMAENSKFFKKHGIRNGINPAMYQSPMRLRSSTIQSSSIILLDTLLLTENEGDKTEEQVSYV
# D(2) dopamine receptor = D(2) dopamine receptor (Homo sapiens, UniProt P14416); experiment: Binding affinity to D2 receptor
# D(2) dopamine receptor, sequence (P14416 whole entry): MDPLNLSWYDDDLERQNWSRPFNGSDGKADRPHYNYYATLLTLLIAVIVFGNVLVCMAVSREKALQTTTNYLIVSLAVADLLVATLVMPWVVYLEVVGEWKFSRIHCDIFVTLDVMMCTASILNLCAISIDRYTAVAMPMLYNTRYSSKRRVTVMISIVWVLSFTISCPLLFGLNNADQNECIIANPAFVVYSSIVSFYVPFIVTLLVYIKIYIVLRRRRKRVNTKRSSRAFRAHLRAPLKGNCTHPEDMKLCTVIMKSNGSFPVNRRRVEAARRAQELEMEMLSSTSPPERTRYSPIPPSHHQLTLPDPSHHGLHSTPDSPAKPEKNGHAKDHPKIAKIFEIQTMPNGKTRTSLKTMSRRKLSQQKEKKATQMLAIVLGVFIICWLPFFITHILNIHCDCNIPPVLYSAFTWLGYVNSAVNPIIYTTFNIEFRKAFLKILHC
# [8] = target: Sodium-dependent serotonin transporter (Homo sapiens, UniProt P31645); experiment: Binding affinity to 5-HT transporter
# Sodium-dependent serotonin transporter, sequence (P31645 whole entry): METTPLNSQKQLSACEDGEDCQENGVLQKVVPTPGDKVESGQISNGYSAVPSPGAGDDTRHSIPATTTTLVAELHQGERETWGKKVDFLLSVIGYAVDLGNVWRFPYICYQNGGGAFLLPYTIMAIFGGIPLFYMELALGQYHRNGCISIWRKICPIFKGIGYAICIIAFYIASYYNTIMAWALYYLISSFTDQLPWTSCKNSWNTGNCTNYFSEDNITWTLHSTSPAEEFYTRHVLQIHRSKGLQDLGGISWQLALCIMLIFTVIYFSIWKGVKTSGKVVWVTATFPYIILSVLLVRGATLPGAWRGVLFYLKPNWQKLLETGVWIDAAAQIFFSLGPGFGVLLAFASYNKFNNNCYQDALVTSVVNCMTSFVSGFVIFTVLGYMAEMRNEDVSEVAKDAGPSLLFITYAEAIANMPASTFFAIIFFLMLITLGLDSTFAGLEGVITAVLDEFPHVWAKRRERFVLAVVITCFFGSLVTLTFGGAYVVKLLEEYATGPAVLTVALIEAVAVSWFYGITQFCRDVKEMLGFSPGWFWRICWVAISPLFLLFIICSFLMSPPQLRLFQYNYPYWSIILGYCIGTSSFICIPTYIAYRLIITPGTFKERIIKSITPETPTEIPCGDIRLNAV
# Histamine H1 receptor = Histamine H1 receptor (Homo sapiens, UniProt P35367); experiment: Binding affinity to H1 receptor
# Histamine H1 receptor, sequence (P35367 whole entry): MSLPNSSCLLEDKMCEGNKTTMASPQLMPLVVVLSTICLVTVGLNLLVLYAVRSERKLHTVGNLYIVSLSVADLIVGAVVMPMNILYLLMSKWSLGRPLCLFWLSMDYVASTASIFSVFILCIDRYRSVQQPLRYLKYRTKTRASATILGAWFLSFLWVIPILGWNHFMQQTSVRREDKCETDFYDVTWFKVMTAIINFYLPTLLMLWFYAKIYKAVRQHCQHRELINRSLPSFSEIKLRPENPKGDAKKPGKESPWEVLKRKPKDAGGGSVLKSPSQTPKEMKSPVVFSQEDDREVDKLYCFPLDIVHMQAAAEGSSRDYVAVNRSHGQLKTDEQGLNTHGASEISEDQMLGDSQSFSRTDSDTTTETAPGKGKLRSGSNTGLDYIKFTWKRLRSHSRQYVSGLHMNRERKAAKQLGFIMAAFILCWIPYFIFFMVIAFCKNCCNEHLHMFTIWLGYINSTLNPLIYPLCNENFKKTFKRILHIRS
# Histamine H2 receptor = Histamine H2 receptor (Homo sapiens, UniProt P25021); experiment: Binding affinity to H2 receptor
# Histamine H2 receptor, sequence (P25021 whole entry): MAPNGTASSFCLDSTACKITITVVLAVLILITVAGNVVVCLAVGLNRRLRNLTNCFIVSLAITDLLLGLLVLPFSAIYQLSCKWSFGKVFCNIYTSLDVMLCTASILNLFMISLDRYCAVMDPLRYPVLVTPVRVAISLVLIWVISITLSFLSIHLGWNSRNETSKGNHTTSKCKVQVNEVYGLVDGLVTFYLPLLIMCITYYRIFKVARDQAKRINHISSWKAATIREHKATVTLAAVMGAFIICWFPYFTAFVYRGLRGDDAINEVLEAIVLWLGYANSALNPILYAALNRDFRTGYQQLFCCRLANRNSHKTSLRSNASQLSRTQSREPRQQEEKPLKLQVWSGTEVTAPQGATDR
# [9] = target: Sodium-dependent dopamine transporter (Homo sapiens, UniProt Q01959); experiment: Binding affinity to DAT
# Sodium-dependent dopamine transporter, sequence (Q01959 whole entry): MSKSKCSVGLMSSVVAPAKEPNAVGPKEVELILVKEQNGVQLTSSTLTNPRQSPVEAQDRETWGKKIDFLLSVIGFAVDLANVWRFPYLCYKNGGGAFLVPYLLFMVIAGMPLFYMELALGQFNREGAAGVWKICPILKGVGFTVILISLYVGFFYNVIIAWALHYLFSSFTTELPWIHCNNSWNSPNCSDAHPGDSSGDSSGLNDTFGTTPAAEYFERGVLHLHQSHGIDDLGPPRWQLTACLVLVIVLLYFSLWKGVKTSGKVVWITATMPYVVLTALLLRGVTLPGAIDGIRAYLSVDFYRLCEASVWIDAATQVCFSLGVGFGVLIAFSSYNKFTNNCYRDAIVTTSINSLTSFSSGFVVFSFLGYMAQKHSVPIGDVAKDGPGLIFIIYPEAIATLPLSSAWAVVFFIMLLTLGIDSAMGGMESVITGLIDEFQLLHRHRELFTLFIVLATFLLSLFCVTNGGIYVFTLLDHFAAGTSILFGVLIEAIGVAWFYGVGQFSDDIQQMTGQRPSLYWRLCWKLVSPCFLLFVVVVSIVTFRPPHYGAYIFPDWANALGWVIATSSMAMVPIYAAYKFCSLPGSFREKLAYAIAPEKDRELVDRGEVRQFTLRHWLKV
# Histamine H3 receptor (Rattus norvegicus, UniProt Q9QYN8), sequence (Q9QYN8 whole entry): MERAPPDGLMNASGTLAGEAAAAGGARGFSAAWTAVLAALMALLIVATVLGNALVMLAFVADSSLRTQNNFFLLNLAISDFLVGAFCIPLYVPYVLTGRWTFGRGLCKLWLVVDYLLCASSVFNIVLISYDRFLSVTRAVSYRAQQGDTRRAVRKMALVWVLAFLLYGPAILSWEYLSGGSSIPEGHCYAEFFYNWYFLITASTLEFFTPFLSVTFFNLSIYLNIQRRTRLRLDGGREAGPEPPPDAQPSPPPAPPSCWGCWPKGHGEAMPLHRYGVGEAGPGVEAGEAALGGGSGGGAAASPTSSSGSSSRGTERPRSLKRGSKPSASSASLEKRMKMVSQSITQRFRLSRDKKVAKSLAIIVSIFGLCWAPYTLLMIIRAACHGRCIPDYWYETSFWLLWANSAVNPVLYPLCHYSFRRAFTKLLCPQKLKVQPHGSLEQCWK
Ki (Histamine H3 receptor [1]),Ki (Histamine H3 receptor [2]),Structure (SMILES),IC50 [3],other results
174 nM,0.8 nM,O=C1c2ccc(-n3cnc4ccccc43)cc2CCN1CCN1CCCC1,–,–
270 nM,6.9 nM,N#Cc1ccc(-c2ccc3c(c2)CCN(CCCN2CCCC2)C3=O)cc1,–,–
–,3.1 nM,CN(C)C(=O)c1ccc(-c2ccc3c(c2)CCN(CCN2CCCC2)C3=O)c(F)c1,32500 nM,–
–,1 nM,CNC(=O)c1ccc(-c2ccc3c(c2)CCN(CCN2CCC[C@H]2C)C3=O)cc1,17000 nM,–
–,1.3 nM,CNC(=O)c1ccc(-c2ccc3c(c2)CCN(CCN2CCCC2)C3=O)cc1,–,–
–,1.9 nM,O=C(NC1CCCC1)c1ccc(-c2ccc3c(c2)CCN(CCN2CCCC2)C3=O)cc1,8200 nM,Ki [4]: > 3000 nM; Ki [5]: > 10000 nM; Ki [6]: 8720 nM; Ki [7]: > 10000 nM; Ki (D(2) dopamine receptor): > 10000 nM; Ki [8]: 170 nM; Ki (Histamine H1 receptor): 9620 nM; Ki (Histamine H2 receptor): > 10000 nM; Ki [9]: > 10000 nM
–,3.2 nM,O=C(c1ccc(-c2ccc3c(c2)CCN(CCN2CCCC2)C3=O)c(F)c1)N1CCCC1,11300 nM,–
–,1.7 nM,C[C@H]1CCCN1C(=O)c1ccc(-c2ccc3c(c2)CCN(CCN2CCCC2)C3=O)cc1,12000 nM,Ki [4]: > 3000 nM; Ki [5]: > 10000 nM; Ki [6]: 9040 nM; Ki [7]: > 10000 nM; Ki (D(2) dopamine receptor): > 10000 nM; Ki [8]: 390 nM; Ki (Histamine H1 receptor): 7010 nM; Ki (Histamine H2 receptor): > 10000 nM; Ki [9]: > 10000 nM
–,1.7 nM,C[C@@H]1CCCN1C(=O)c1ccc(-c2ccc3c(c2)CCN(CCN2CCCC2)C3=O)cc1,10500 nM,Ki [4]: > 3000 nM; Ki [5]: > 10000 nM; Ki [6]: 9720 nM; Ki [7]: > 10000 nM; Ki (D(2) dopamine receptor): > 10000 nM; Ki [8]: 320 nM; Ki (Histamine H1 receptor): > 10000 nM; Ki (Histamine H2 receptor): > 10000 nM; Ki [9]: > 10000 nM

# Further lines, the molecule ahead of its results:
Structure (SMILES),Ki (Histamine H3 receptor [1]),Ki (Histamine H3 receptor [2]),IC50 [3],other results
O=C(c1ccc(-c2ccc3c(c2)CCN(CCN2CCCC2)C3=O)cc1F)N1CCCC1,–,1.3 nM,8800 nM,–
O=C(NC1CC1)c1ccc(-c2ccc3c(c2)CCN(CCN2CCCC2)C3=O)cc1,–,2.7 nM,11000 nM,–
O=C1c2ccc(-c3cccc(C(F)(F)F)c3)cc2CCN1CCN1CCCC1,182 nM,6.4 nM,–,–
O=C1c2ccc(-c3cc(F)cc(F)c3)cc2CCN1CCN1CCCC1,146 nM,9 nM,–,–
O=C1c2ccc(-c3ccc(OC(F)(F)F)cc3)cc2CCN1CCN1CCCC1,178 nM,14.9 nM,–,–
NC(=O)c1ccc(-c2ccc3c(c2)CCN(CCN2CCCC2)C3=O)cc1,–,6 nM,–,inhibition at 10 µM (hERG (KCNH2)): 14%
N#Cc1ccc(-c2ccc3c(c2)CCN(CCN2CCCC2)C3=O)cc1,25 nM,3.9 nM,–,–
CCNC(=O)c1ccc(-c2ccc3c(c2)CCN(CCN2CCCC2)C3=O)cc1,–,1.2 nM,–,–
O=C(c1ccc(-c2ccc3c(c2)CCN(CCN2CCCC2)C3=O)cc1Cl)N1CCCC1,–,1.6 nM,9300 nM,–
C[C@@H]1CCCN1CCN1CCc2cc(-c3ccc(C(=O)N4CCCC4)cc3)ccc2C1=O,–,0.2 nM,–,Ki [4]: > 3000 nM; Ki [5]: > 10000 nM; Ki [6]: 12200 nM; Ki [7]: > 10000 nM; Ki (D(2) dopamine receptor): > 10000 nM; Ki [8]: 810 nM; Ki (Histamine H1 receptor): 8750 nM; Ki (Histamine H2 receptor): > 10000 nM; Ki [9]: > 10000 nM
O=C1c2ccc(-c3ccc(C(F)(F)F)cc3)cc2CCN1CCN1CCCC1,101 nM,9.3 nM,–,–
C[C@@H]1CCCN1CCN1CCc2ccc(-c3ccc(C#N)cc3)cc2C1=O,–,2.4 nM,–,inhibition at 10 µM (hERG (KCNH2)): 98%
C[C@@H]1CCCN1CCN1CCc2cc(Oc3ccc(C#N)nc3)ccc2C1=O,–,0.3 nM,–,inhibition at 10 µM (hERG (KCNH2)): 99%
CC(C)NC(=O)c1ccc(-c2ccc3c(c2)CCN(CCN2CCCC2)C3=O)cc1,–,1.9 nM,–,–
O=C1c2ccc(-c3cccc(OC(F)(F)F)c3)cc2CCN1CCN1CCCC1,276 nM,28.4 nM,–,–
